Data on one molecule can be found in PMC10403574, “Discovery of a pyrrole-pyridinimidazole derivative as novel SIRT6 inhibitor for sensitizing pancreatic cancer to gemcitabine” (Cell Death & Disease, 2023).

The target of one data set is SIRT5 (Homo sapiens, UniProt Q9NXA8). As to the kind of experiment: Deacetylation activity selectivity, SIRT5. Format: biochemical. Here is the method: (§1) Fluor-De-Lys (FDL) assays were used for the examination of the deacetylation activities of sirtuins as described previously. For the detection of SIRT6 activity, the 50-μL reaction mixture contained 5 μM SIRT6, 2.5 mM NAD^+ (β-Nicotinamide adenine dinucleotide hydrate, Sigma, N1636), 75 μM RHKK-Ac-AMC (GL Biochem, Shanghai), compounds/DMSO, and assay buffer. The reactions were incubated at 37 °C for 2 h, added 50 μL stop solution (40 mM nicotinamide, 6 mg/mL trypsin) at 25 °C for 30 min. Fluorescence intensity was measured at an excitation wavelength of 360 nm and an emission wavelength of 460 nm. IC50 values were calculated in GraphPad Prism version 8.00.
SIRT5, sequence (Q9NXA8 37-310, species assumed): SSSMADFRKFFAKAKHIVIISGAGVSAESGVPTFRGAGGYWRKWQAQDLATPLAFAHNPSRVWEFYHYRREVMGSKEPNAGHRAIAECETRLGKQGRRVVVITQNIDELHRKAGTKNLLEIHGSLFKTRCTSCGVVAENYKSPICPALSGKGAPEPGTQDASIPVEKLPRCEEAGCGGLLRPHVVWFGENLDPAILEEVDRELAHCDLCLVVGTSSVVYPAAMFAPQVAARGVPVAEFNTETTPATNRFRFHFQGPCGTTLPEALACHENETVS
(§2) Based on the above results, 8a was further investigated in this study. […] To further evaluate the selectivity of 8a for SIRT6, we examined the effect of 8a on the deacetylation activity of other HDAC family members, including HDAC1-HDAC11, SIRT1-SIRT3 and SIRT5. […] Furthermore, to confirm binding of 8a to SIRT6 in cells, we carried out the cellular thermal shift assay (CETSA). The CETSA approach builds on the thermal shift assay concept where ligand binding to its target protein enhances the target protein stability. We observed that the thermal stability of SIRT6 increased after 8a treatment (Figs. 2c, d).

Another data set concerns the target HDAC2 (Homo sapiens, UniProt Q92769). In words: Deacetylation activity selectivity, HDAC2. Format: biochemical.
Text: as §2

The target in the next data set is HDAC3 (Homo sapiens, UniProt O15379). As to the kind of experiment: Deacetylation activity selectivity, HDAC3. Format: biochemical.
HDAC3, sequence (O15379 whole entry, species assumed): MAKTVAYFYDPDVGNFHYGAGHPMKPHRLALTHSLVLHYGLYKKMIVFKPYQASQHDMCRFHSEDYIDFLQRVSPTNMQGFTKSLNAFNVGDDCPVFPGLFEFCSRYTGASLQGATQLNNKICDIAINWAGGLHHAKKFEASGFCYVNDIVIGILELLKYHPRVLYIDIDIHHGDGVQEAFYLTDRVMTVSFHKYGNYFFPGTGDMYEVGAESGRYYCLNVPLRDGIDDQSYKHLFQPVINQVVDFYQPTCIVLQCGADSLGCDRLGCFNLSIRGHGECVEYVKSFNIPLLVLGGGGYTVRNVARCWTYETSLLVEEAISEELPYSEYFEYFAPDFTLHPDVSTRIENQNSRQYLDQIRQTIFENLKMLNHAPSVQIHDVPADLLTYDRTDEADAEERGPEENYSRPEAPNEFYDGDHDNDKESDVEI
HDAC3, sequence (Q9Y618 395-489 partner limits assumed, species assumed): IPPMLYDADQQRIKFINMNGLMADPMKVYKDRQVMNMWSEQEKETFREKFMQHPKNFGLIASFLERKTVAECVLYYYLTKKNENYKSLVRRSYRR
Text: as §2

For the next data set, the target named is HDAC5 (Homo sapiens, UniProt Q9UQL6). As to the kind of experiment: Deacetylation activity selectivity, HDAC5. Format: biochemical.
HDAC5, sequence (Q9UQL6 whole entry, species assumed): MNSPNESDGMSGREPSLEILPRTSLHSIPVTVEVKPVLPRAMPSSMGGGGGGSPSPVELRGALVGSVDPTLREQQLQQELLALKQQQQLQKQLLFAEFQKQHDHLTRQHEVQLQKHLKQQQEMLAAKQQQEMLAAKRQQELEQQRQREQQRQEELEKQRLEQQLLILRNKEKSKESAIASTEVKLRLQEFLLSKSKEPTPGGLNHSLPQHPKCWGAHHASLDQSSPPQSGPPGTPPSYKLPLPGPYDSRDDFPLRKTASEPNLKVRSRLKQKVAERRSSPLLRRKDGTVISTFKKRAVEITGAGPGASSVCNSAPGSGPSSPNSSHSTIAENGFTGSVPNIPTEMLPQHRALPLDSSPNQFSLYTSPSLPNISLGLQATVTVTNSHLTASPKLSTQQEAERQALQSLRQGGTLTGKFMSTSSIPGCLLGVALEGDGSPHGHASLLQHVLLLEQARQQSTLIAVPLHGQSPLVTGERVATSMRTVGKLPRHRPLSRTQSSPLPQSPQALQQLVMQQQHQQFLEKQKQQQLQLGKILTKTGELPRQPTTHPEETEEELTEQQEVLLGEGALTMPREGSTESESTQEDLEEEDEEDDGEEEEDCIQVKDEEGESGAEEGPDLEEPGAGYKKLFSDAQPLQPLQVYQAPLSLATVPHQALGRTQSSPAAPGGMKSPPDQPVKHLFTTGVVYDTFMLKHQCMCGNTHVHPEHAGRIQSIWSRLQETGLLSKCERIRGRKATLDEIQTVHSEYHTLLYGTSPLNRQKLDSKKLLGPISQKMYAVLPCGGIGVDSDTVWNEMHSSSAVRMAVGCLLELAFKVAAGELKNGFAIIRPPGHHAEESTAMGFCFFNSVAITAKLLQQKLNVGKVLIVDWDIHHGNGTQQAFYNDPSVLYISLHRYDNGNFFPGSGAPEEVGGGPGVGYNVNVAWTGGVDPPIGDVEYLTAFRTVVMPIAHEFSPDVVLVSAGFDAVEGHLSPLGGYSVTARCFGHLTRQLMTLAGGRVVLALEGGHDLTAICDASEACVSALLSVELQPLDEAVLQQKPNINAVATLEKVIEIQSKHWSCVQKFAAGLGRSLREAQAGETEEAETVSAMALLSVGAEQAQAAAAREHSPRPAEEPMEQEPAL
Text: as §2

A further data set concerns the target HDAC8 (Homo sapiens, UniProt Q9BY41). In words: Deacetylation activity selectivity, HDAC8. Format: biochemical.
Text: as §2

The target of data set [1] is T1, SIRT6 mutant (V70A and F86A) (Homo sapiens, UniProt Q8N6T7, F86A/V70A).
T1 construct: The human full-length SIRT6 gene was inserted into the prokaryotic expression vector (pET-28a (+)); inferred from the pET-28a(+) vector and Ni-NTA purification of the wild-type construct); made in house; host or cells: Escherichia coli BL21 (DE3) (inferred from the wild-type protocol)
T1 sequence (Q8N6T7 whole entry V70A/F86A): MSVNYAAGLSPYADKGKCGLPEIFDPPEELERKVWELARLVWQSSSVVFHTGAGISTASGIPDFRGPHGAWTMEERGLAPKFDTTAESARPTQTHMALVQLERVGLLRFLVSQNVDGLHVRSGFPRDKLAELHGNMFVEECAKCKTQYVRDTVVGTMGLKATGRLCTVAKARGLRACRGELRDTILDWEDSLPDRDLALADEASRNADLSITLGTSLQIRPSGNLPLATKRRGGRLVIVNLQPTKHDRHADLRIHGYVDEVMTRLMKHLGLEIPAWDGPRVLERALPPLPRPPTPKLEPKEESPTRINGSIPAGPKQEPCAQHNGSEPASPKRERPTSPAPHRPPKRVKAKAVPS
In words: FDL assay on SIRT6 mutant (V70A and F86A). Format: biochemical. Here is the method:
as §1
To explore the interaction mechanism, we performed the molecular docking experiment between SIRT6 (PDB ID: 6QCJ) and 8a. […] 8a mainly formed hydrogen bond with the backbone amino group of D187 and the ribose hydroxyl group of the coenzyme NAD^+, and stabilized the whole system by hydrophobic interactions with key amino acids such as I8, V70, W71, F82 and F86 (Fig. 2g). To verify this binding model, the mutant (V70A and F86A) of SIRT6 was constructed by site mutation. […] Moreover, there were also some other potential binding pockets predicted by molecular docking (data not shown). Based on the prediction, we constructed other two SIRT6 mutants (E140A/R195A and T184A/S191A/P193A/E283A). […]

Another data set has as its system BXPC-3 cells. As to the kind of experiment: Western blot of BXPC-3 cells. Format: cell-based. The protocol: Cells were harvested and lysed in a lysis buffer (solarbio, R0010) supplementing 1 mM PMSF and protease inhibitor (TargetMol, USA). […] The blocked membrane was incubated with primary antibodies:SIRT6 (1:1000, Cell Signaling Technology, Cat#12486S, RRID:AB_2636969), Histone H3 Antibody (1:1000, Cell Signaling Technology, Cat#9715S, RRID:AB_331563), β-Actin (1:2000, Cell Signaling Technology, Cat#4970S, RRID:AB_2223172), Cleaved caspases-3 (1:1000, Cell Signaling Technology, Cat#9661S, RRID:AB_2341188), Cleaved Caspase-9 (Asp315) (1:1000, Cell Signaling Technology, Cat#20750S,RRID:AB_2798848), Cleaved PARP (1:1000, Cell Signaling Technology, Cat#5625S, RRID:AB_10699459), AKT (1:1000, Cell Signaling Technology, Cat#9272S, RRID:AB_329827), Phospho-AKT (Ser473) (D9E) (1:1000, Cell Signaling Technology, Cat#4060S, RRID:AB_2315049), ERK1/2 (1:1000, Cell Signaling Technology, Cat#4695S, RRID:AB_390779), Phospho-p44/42 MAPK (ERK1/2) (Thr202/Tyr204) (1:1000, Cell Signaling Technology, Cat#4370S, RRID:AB_2315112), Cyclin D1 (E3P5S) (1:1000, Cell Signaling Technology, Cat#55506 S, RRID:AB_2827374), Phospho-mTOR(Ser2448) (1:1000,Cell Signaling Technology, Cat#5536S, RRID:AB_10691552), Phospho-p70S6Kinase (Thr421/Ser424) (1:1000, Cell Signaling Technology, Cat#9204 S, RRID:AB_2265913), Phospho-Histone H2A.X (Ser139) (1:1000, Cell Signaling Technology, Cat#9718S, RRID:AB_2118009) at 4 °C overnight. After being washed with TBST, the membranes were incubated with horseradish peroxidase-conjugated secondary antibodies at room temperature for 1 h. Then, the membranes were detected by Tanon 5200 (Tanon, Beijing, China).
In general terms: A western blot detects proteins with antibodies after separation by electrophoresis.

A further data set has as its system β-TC-6 cells. In words: Cell glucose uptake assay, β-TC-6. The conditions noted are these: β-TC-6, 8a (3.125, 6.25, 12.5 μM) + insulin (100 nM) vs insulin only, 30 min. Format: cell-based. Here is the method:
The NIT-1 and β-TC-6 cells were added to the wells of 12-well plates and incubated overnight. Then the culture medium without FBS was incubated for 6 h, and different concentrations of 8a (3.125, 6.25, 12.5 μM), insulin (100 nM) or their combination were added for 30 min. Glucose uptake was determined using a Glucose Uptake Assay Kit (Jiancheng, Nanjing).

HDAC2, sequence (Q92769 whole entry, species assumed): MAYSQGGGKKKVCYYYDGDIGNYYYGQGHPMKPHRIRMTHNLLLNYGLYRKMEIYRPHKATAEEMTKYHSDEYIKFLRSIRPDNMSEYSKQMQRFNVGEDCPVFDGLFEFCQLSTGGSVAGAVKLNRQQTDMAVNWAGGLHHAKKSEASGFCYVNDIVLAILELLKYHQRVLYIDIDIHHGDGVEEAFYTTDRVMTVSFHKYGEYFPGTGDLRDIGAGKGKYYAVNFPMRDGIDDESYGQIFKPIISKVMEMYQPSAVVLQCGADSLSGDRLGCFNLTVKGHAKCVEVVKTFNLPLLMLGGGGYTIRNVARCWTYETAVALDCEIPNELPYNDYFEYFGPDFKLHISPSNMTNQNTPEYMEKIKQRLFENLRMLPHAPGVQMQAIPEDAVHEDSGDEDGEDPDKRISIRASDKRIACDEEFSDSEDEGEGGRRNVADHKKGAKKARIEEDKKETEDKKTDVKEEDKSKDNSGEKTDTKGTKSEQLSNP
HDAC8, sequence (Q9BY41 whole entry, species assumed): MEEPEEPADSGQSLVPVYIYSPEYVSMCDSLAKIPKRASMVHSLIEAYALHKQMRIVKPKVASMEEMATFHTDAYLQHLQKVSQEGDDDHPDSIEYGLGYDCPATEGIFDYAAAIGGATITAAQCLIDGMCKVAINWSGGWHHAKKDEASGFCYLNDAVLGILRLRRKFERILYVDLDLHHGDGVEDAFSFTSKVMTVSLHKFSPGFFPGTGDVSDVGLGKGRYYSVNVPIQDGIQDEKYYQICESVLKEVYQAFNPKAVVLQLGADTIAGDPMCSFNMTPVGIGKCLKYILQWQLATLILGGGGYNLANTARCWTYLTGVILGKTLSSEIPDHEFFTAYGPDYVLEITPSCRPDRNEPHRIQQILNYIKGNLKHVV

Usually IC50 stands for the concentration that gives 50% inhibition. Lower therefore signals greater potency in that assay. In the case of `Br.CN(C)C(SCCCCCCn1cnc2c(-c3cc(Br)c(Br)[nH]3)nccc21)=[N+](C)C.[Cl-]` [Compound 8a], the IC50 was > 200 µM against SIRT5; > 200 µM on HDAC2; 112 ± 2.05 µM against HDAC3; > 200 µM on HDAC5; 102 ± 2.01 µM against HDAC8; 79 ± 9 µM in data set [1] (FDL assay). For the same molecule, in data set [1] (versus wild-type SIRT6), the “increase of IC50 to the mutant (V70A and F86A)” value is on record as “approximately 10 fold”. In the data set with BXPC-3 cells (BXPC-3, 48 h, dose-dependent), the “cyclin D1 expression” value is “decreased”. Moreover, the “expression of cleaved-PARP, cleaved-Caspase3, and cleaved-Caspase9” value in the data set on BXPC-3 cells (BXPC-3, western blot) was “significantly up-regulated”. For the same molecule, in the data set on BXPC-3 cells (BXPC-3, western blot), the “p-mTOR, p-P70S6K, p-AKT, and p-ERK” value is “significantly down-regulated”. The “acetylation level of H3K9” value with BXPC-3 cells (BXPC-3 cells, western blot, dose-dependent) was “increased”. In the data set with β-TC-6 cells, the glucose uptake result is recorded as “no significant effect”.
